From PubChem BioAssay AID2060893 (Molecular Pharmacology Branch, DTP, NCI, 2025)

System: K86415-001-R-J1-PDC complex spheroids, viability
Test: Anticancer human tumor K86415-001-R-J1-PDC patient-derived lung adenocarcinoma cell line growth inhibition [RAS]
Conditions: for IC50: curve of first compound; for viability, T/C: stronger effect = lower value; active = viability on the fitted dose curve at most 10% of control; inactive = the rest
How it was run: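 Tumour cells grown as complex spheroids with HUVEC endothelial cells and mesenchymal stem cells, treated with RAS pathway inhibitor combinations. Each agent spans half-log steps from near clinical Cmax, or 10 microM where Cmax is unknown.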
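Also: spheroids exposed to agents for seven days before readout.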

CC1(C)CCC(Nc2ncc(C(F)(F)F)c(-c3c[nH]c4c(P(C)(C)=O)c(C#N)ccc34)n2)CN1 (centres undefined) + CCn1c(-c2cccnc2C(C)OC)c2c3cc(ccc31)N1CCOC(CC(NC(=O)C(C(C)C)N(C)C(=O)C3(F)CCN(C(=O)C#CC(C)(C)N(C)C)CC3)C(=O)N3CCCC(N3)C(=O)OCC(C)(C)C2)C1
< 0.949 nM: IC50 (second compound 0.000949 µM) | IC50 (second compound 0.003 µM) | IC50 (second compound 0.00949 µM) | IC50 (second compound 0.03 µM) | IC50 (second compound 0.0949 µM) | IC50 (second compound 0.3 µM)
inactive: viability, T/C (second compound 0.000949 µM, first compound 0.000949 µM) 46.4% | viability, T/C (second compound 0.000949 µM, first compound 0.003 µM) 48.8% | viability, T/C (second compound 0.000949 µM, first compound 0.00949 µM) 35.2% | viability, T/C (second compound 0.000949 µM, first compound 0.03 µM) 57.9% | viability, T/C (second compound 0.000949 µM, first compound 0.0949 µM) 54.9% | viability, T/C (second compound 0.000949 µM, first compound 0.3 µM) 41.8% | viability, T/C (second compound 0.003 µM, first compound 0.000949 µM) 15.9% | viability, T/C (second compound 0.003 µM, first compound 0.003 µM) 14.2% | viability, T/C (second compound 0.003 µM, first compound 0.00949 µM) 17.2% | viability, T/C (second compound 0.003 µM, first compound 0.03 µM) 19.4% | viability, T/C (second compound 0.003 µM, first compound 0.0949 µM) 22.6% | viability, T/C (second compound 0.003 µM, first compound 0.3 µM) 20.4% | viability, T/C (second compound 0.00949 µM, first compound 0.000949 µM) 13.5% | viability, T/C (second compound 0.00949 µM, first compound 0.003 µM) 12.7% | viability, T/C (second compound 0.00949 µM, first compound 0.00949 µM) 16.5% | viability, T/C (second compound 0.00949 µM, first compound 0.03 µM) 20.3% | viability, T/C (second compound 0.00949 µM, first compound 0.0949 µM) 20.1% | viability, T/C (second compound 0.00949 µM, first compound 0.3 µM) 21.1% | viability, T/C (second compound 0.03 µM, first compound 0.000949 µM) 13.3% | viability, T/C (second compound 0.03 µM, first compound 0.003 µM) 16.3% | viability, T/C (second compound 0.03 µM, first compound 0.00949 µM) 17% | viability, T/C (second compound 0.03 µM, first compound 0.03 µM) 13.9% | viability, T/C (second compound 0.03 µM, first compound 0.0949 µM) 14.8% | viability, T/C (second compound 0.03 µM, first compound 0.3 µM) 21.1% | viability, T/C (second compound 0.0949 µM, first compound 0.000949 µM) 12.1% | viability, T/C (second compound 0.0949 µM, first compound 0.003 µM) 17.4% | viability, T/C (second compound 0.0949 µM, first compound 0.00949 µM) 17.6% | viability, T/C (second compound 0.0949 µM, first compound 0.03 µM) 19.6% | viability, T/C (second compound 0.0949 µM, first compound 0.0949 µM) 15.4% | viability, T/C (second compound 0.0949 µM, first compound 0.3 µM) 20.1% | viability, T/C (second compound 0.3 µM, first compound 0.000949 µM) 15.7% | viability, T/C (second compound 0.3 µM, first compound 0.003 µM) 15.3% | viability, T/C (second compound 0.3 µM, first compound 0.00949 µM) 16.7% | viability, T/C (second compound 0.3 µM, first compound 0.03 µM) 14.6% | viability, T/C (second compound 0.3 µM, first compound 0.0949 µM) 18.2% | viability, T/C (second compound 0.3 µM, first compound 0.3 µM) 20.9%

CC(Nc1ccc2c(c1)OCCn1cc(N3C(=O)OCC3C(F)F)nc1-2)C(N)=O (centres undefined) + C#Cc1c(F)ccc2cc(O)cc(-c3ncc4c(N5CC6CCC(C5)N6)nc(OCC56CCCN5CC(F)C6)nc4c3F)c12
1190 nM: IC50 (second compound 0.316 µM)
1170 nM: IC50 (second compound 0.0316 µM)
1620 nM: IC50 (second compound 0.1 µM)
< 31.6 nM: IC50 (second compound 3.16 µM) | IC50 (second compound 10 µM)
active: viability, T/C (second compound 10 µM, first compound 1 µM) 6.87% | viability, T/C (second compound 10 µM, first compound 3.16 µM) 3.76% | viability, T/C (second compound 10 µM, first compound 10 µM) 1.56%
inactive: viability, T/C (second compound 0.0316 µM, first compound 0.0316 µM) 84.4% | viability, T/C (second compound 0.0316 µM, first compound 0.1 µM) 93.5% | viability, T/C (second compound 0.0316 µM, first compound 0.316 µM) 63.5% | viability, T/C (second compound 0.0316 µM, first compound 1 µM) 50.1% | viability, T/C (second compound 0.0316 µM, first compound 3.16 µM) 47.6% | viability, T/C (second compound 0.0316 µM, first compound 10 µM) 29.1% | viability, T/C (second compound 0.1 µM, first compound 0.0316 µM) 90.3% | viability, T/C (second compound 0.1 µM, first compound 0.1 µM) 86.2% | viability, T/C (second compound 0.1 µM, first compound 0.316 µM) 69.5% | viability, T/C (second compound 0.1 µM, first compound 1 µM) 56% | viability, T/C (second compound 0.1 µM, first compound 3.16 µM) 42.5% | viability, T/C (second compound 0.1 µM, first compound 10 µM) 28.2% | viability, T/C (second compound 0.316 µM, first compound 0.0316 µM) 84.9% | viability, T/C (second compound 0.316 µM, first compound 0.1 µM) 86.7% | viability, T/C (second compound 0.316 µM, first compound 0.316 µM) 65.3% | viability, T/C (second compound 0.316 µM, first compound 1 µM) 53.2% | viability, T/C (second compound 0.316 µM, first compound 3.16 µM) 38.5% | viability, T/C (second compound 0.316 µM, first compound 10 µM) 28.4% | viability, T/C (second compound 1 µM, first compound 0.0316 µM) 71.6% | viability, T/C (second compound 1 µM, first compound 0.1 µM) 62% | viability, T/C (second compound 1 µM, first compound 0.316 µM) 50.9% | viability, T/C (second compound 1 µM, first compound 1 µM) 46.1% | viability, T/C (second compound 1 µM, first compound 3.16 µM) 34.3% | viability, T/C (second compound 1 µM, first compound 10 µM) 23.2% | viability, T/C (second compound 3.16 µM, first compound 0.0316 µM) 33.2% | viability, T/C (second compound 3.16 µM, first compound 0.1 µM) 26.4% | viability, T/C (second compound 3.16 µM, first compound 0.316 µM) 26.5% | viability, T/C (second compound 3.16 µM, first compound 1 µM) 26.9% | viability, T/C (second compound 3.16 µM, first compound 3.16 µM) 22.4% | viability, T/C (second compound 3.16 µM, first compound 10 µM) 12.8% | viability, T/C (second compound 10 µM, first compound 0.0316 µM) 16.3% | viability, T/C (second compound 10 µM, first compound 0.1 µM) 15.2% | viability, T/C (second compound 10 µM, first compound 0.316 µM) 11.7%
472 nM: IC50 (second compound 1 µM)
